Measurements taken from the supplement of paper PMC8967900.

Tests used:
Assay in all cases: selective drug sensitivity score (sDSS, relative to normal bone marrow) (sDSS (score)); higher = more potent and effective on the cell line relative to normal bone marrow cells
Conditions in all cases: 72 h
[1] = test system: COG-LL-319h
[2] = test system: ALL-PO
[3] = test system: SUP-B15
[4] = test system: TANOUE
[5] = test system: DND-41
[6] = test system: PEER
[7] = test system: RCH-ACV
[8] = test system: KOPN-8
[9] = test system: REH
[10] = test system: COG-LL-317
[11] = test system: P30-OHKUBO
[12] = test system: JURKAT
[13] = test system: HPB-ALL
[14] = test system: 380
[15] = test system: NALL-1
[16] = test system: MOLT-16
[17] = test system: MOLT-4
[18] = test system: COG-LL-394h
[19] = test system: MN-60
[20] = test system: CCRF-CEM
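Also: ALL cell lines in 384-well plates, five doses spanning 10,000-fold, each plate scaled between vehicle and 100 µmol/L benzalkonium chloride controls, sDSS an adapted area-under-curve metric.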

SMILES	selective drug sensitivity score [1]	selective drug sensitivity score [2]	selective drug sensitivity score [3]	selective drug sensitivity score [4]	selective drug sensitivity score [5]	selective drug sensitivity score [6]	selective drug sensitivity score [7]	selective drug sensitivity score [8]	selective drug sensitivity score [9]	selective drug sensitivity score [10]	selective drug sensitivity score [11]	selective drug sensitivity score [12]	selective drug sensitivity score [13]	selective drug sensitivity score [14]	selective drug sensitivity score [15]	selective drug sensitivity score [16]	selective drug sensitivity score [17]	selective drug sensitivity score [18]	selective drug sensitivity score [19]	selective drug sensitivity score [20]
CC1(C)C(C(=O)Nc2ccc(S(=O)(=O)c3ccc(NC(=O)C4C(C)(C)C4(C)C)cc3)cc2)C1(C)C [BRD7116] (top concentration 10000 nM)	1.26	-0.24	-0.14	-0.24	-0.24	-0.14	-0.14	-0.24	2.86	-0.24	4.46	1.76	3.26	-0.24	-0.24	1.26	0.66	3.16	-0.04	1.16
CCC1=C[C@@H]2CN(C1)Cc1c([nH]c3ccccc13)[C@@](C(=O)OC)(c1cc3c(cc1OC)N(C)[C@H]1[C@@](O)(C(=O)OC)[C@H](OC(C)=O)[C@]4(CC)C=CCN5CC[C@]31[C@@H]54)C2 [Vinorelbine] (top concentration 10000 nM)	12.2	17.5	27.2	-8.32	11.8	19.8	25.1	25.8	26.6	25.6	21.5	23.5	14.6	23.3	16.1	24.7	20.6	9.58	1.68	17.8
CCN1CCN(c2ccc(Nc3cc(N(C)C(=O)Nc4c(Cl)c(OC)cc(OC)c4Cl)ncn3)cc2)CC1 [Infigratinib] (top concentration 1000 nM)	0	0	0	0	0	0	0	0	0	0	0	0	0	0	0	0	0	0	0	0
CC(O)c1cc(C(=O)N[C@@H](C)Cn2ccc(-c3ccc(C#N)c(Cl)c3)n2)n[nH]1 (stereo not given in full) [ODM-201] (top concentration 2500 nM)	10.6	0.52	4.22	2.32	2.12	1.02	1.12	0.02	0.02	1.22	0.22	0.72	0.12	-0.08	-0.28	1.82	-0.18	-0.28	-0.28	1.52
C[C@@H]1CCN(C(=O)CC#N)C[C@@H]1N(C)c1ncnc2[nH]ccc12 [Tofacitinib] (top concentration 5000 nM)	-7.86	-7.86	-7.86	-7.86	1.74	-4.66	-7.86	-7.66	-7.66	-7.86	-6.66	-7.86	-7.86	-7.86	-7.86	-7.86	-7.86	-7.86	-7.86	-7.86
CN1C(=O)N[C@H](Cc2c[nH]c3c(Cl)cccc23)C1=O [Necrostatin_2] (top concentration 10000 nM)	-0.08	-0.08	-0.08	-0.08	-0.08	-0.08	-0.08	-0.08	-0.08	-0.08	-0.08	-0.08	-0.08	-0.08	-0.08	-0.08	-0.08	-0.08	-0.08	-0.08
C[C@H]1CN(C2COC2)CCN1c1ccc(Nc2cc(-c3ccnc(N4CCn5c(cc6c5CC(C)(C)C6)C4=O)c3CO)cn(C)c2=O)nc1 [GDC-0853] (top concentration 1000 nM)	2.8	0	0	0	0	0	0	0	0.2	0	0	0	0.4	0	0	0	0	0	0	0
O=C(O)CC1CC(c2ccccc2)=NO1 (stereo not given) [VGX-1027] (top concentration 10000 nM)	-0.04	-0.04	-0.04	-0.04	-0.04	-0.04	-0.04	-0.04	-0.04	-0.04	-0.04	-0.04	-0.04	-0.04	-0.04	0.16	-0.04	-0.04	-0.04	-0.04
N#CC1(c2ccc(NC(=O)c3cccnc3NCc3ccncc3)cc2)CCCC1 [Apatinib] (top concentration 10000 nM)	0.6	2.4	0.1	0	1	2.2	1.1	0.1	0.1	0	0	0	1	0	0	0	0	0	0	0
